Experimental data as given in patent US20090292124A1, “Therapeutic Agent for Nausea and/or Vomiting” (TORAY INDUSTRIES, INC. a corporation of Japan, priority 2005, published 2009).
Marks after values point to notes of the source that are not given here.

What was measured:
Format in all cases: in vivo
ferrets = assay: Influence on nausea and vomiting induced by morphine; details: test substance 5 mg/kg 30 min before morphine 0.6 mg/kg s.c.; for Appearance Frequency / Duration / Latent Time: mean ± standard error; for Latent Time: no symptom counted as 30 min; for Number of Individuals Presenting Symptoms (Number of Individuals Presenting Symptoms/Number of Cases): observed 30 min
Procedure: About 30 minutes after feeding, ferrets were transferred to observation cages, and the test substances were administered, respectively. Each test substance was dissolved in 5% xylitol, and administered at a dose of 5 mg/kg. Thirty minutes after administration of the test solution, 0.6 mg/kg of morphine was subcutaneously administered at a volume of 1 mL/kg, and the symptoms of vomiting were visually observed until 30 minutes after the administration of morphine.
The appearance frequency, latent time (the time from the administration of morphine to the first appearance of the symptom) and duration (the time from the first vomiting to the final vomiting) of nausea (rhythmical contractile motion of abdomen), of vomiting (vomiting behavior excreting vomit or analogous behavior thereof) and of the total of nausea and vomiting were counted, respectively.

[1] = Test of brain penetration (Test Example 2, oral); details: rat, Crj:CD(SD)IGS male rats, non-fasting, 30 mg/kg orally, brain and plasma 2 hours after administration, n=3
Procedure: Crj:CD(SD)IGS male rats of 7-8 weeks of age
Each of the test compounds in an amount of 90 mg was suspended in 0.5% methylcellulose 1500 cp to a total volume of 6 mL.
(§1) Each test compound was orally administered to non-fasting rats (30 mg/2 mL/kg, n=3), and total blood was collected from the lower aorta 2 hours after the administration. An aliquot of the blood was centrifuged (3000 rpm, 10 minutes, 4° C.), and the concentration of unchanged compound in the obtained blood plasma was measured by LC/MS/MS method.
(§2) After the above-described collection of the total blood, the brain was enucleated from each rat, and homogenized to prepare a 25% homogenate, followed by measurement of the concentration of unchanged compound by LC/MS/MS method.
From the obtained concentrations, Kp values were determined.

[2] = Test of brain penetration (Reference Example 1, intravenous); details: rat, Jcl-SD male rats, non-fasting, 0.5 mg/kg intravenously, brain and plasma 15 minutes after administration, n=2
Procedure: Jcl-SD male rats of 7 weeks of age
The test compound in an amount of 1.0 mg was dissolved in 0.8 mL of N,N-dimethylacetamide, and 0.8 mL of propylene glycol was added thereto.
as §1, with “The” for “Each”, “intravenously” for “orally”, “(0.5 mg/0.8” for “(30 mg/2”, “n=2) through the tail vein,” for “n=3),”, “15 minutes” for “2 hours”
as §2
From the obtained concentrations, Kp values were determined. As a result, the Kp value of NIT was 1.30.

SMILES	Appearance Frequency (ferrets; Nausea + Vomiting)	Duration (ferrets; Nausea + Vomiting) [min]	Latent Time (ferrets; Nausea + Vomiting) [min]	Number of Individuals Presenting Symptoms (Number of Individuals Presenting Symptoms/Number of Cases) (ferrets; Nausea + Vomiting)	Appearance Frequency (ferrets; Nausea)	Duration (ferrets; Nausea) [min]	Latent Time (ferrets; Nausea) [min]	Number of Individuals Presenting Symptoms (Number of Individuals Presenting Symptoms/Number of Cases) (ferrets; Nausea)	Appearance Frequency (ferrets; Vomiting)	Duration (ferrets; Vomiting) [min]	Latent Time (ferrets; Vomiting) [min]	Number of Individuals Presenting Symptoms (Number of Individuals Presenting Symptoms/Number of Cases) (ferrets; Vomiting)	Kp at 2 h [1]	Kp at 0.25 h [2]
Cn1c2c(c3ccccc31)C[C@@]1(O)[C@H]3Cc4ccc(O)c5c4[C@@]1(CCN3CC1CC1)[C@H]2O5 [Compound 1]	0 ± 0	0 ± 0	30 ± 0	0/6##	0 ± 0	0 ± 0	30 ± 0	0/6##	0 ± 0	0 ± 0	30 ± 0	0/6		
CCOC(=O)c1ccc2c3c([nH]c2c1)[C@@H]1Oc2c(O)ccc4c2[C@@]12CCN(CC1CC1)[C@H](C4)[C@]2(O)C3 [Compound 2]	0 ± 0	0 ± 0	30 ± 0	0/6##	0 ± 0	0 ± 0	30 ± 0	0/6##	0 ± 0	0 ± 0	30 ± 0	0/6	0.18	
Cc1ccc(/C=C2\C[C@@]3(O)[C@H]4Cc5ccc(O)c6c5[C@@]3(CCN4CC3CC3)[C@@H](O6)C2=O)cc1 [Compound 3]	0 ± 0	0 ± 0	30 ± 0	0/6##	0 ± 0	0 ± 0	30 ± 0	0/6##	0 ± 0	0 ± 0	30 ± 0	0/6	0.46	
Oc1ccc2c3c1O[C@H]1c4[nH]c5ccccc5c4C[C@@]4(O)[C@@H](C2)N(CC2CC2)CC[C@]314 [NIT, naltrindole]														1.3
